The test system of assay [1] is A10. Description: Disruption of actin cytoskeleton in rat A10 cells assessed as generation of binucleated cells at 7.3 nM after 24 hrs by TRITC-phalloidin assay. In kind it is functional, cell-based.
The next assay concerns HCT-116. Description: Cytotoxicity against human HCT116 cells after 72 hrs by MTS reduction assay. Format: functional, cell-based. The note with it: HCT-116, 72 h. (Formazan colour is commonly taken as a measure of viable cells.)
The subject of assay [2] is Candida albicans. Description: Antifungal activity against wild-type Candida albicans. Format: functional.
Assay [3] concerns Candida albicans. Description: Antifungal activity against amphotericin B-resistant Candida albicans. Format: functional.
Assay [4] concerns A10. Kind of assay: Disruption of actin cytoskeleton in rat A10 cells assessed as generation of binucleated cells at 70 nM after 24 hrs by TRITC-phalloidin assay. Format: functional, cell-based.

≈ marks a conversion by molar mass, not a printed value. Where “and” joins values, the source holds several entries; their conditions need not be identical. Identical values can stand only once. Calls of active or inactive are those of the source.

As for `CO[C@H]1C[C@H](CC[C@H](C)[C@H](O)[C@H](C)[C@H]2OC(=O)/C=C/C(C)=C/C[C@H](O)C[C@@H]3C=CC[C@@H](C[C@H](OC)[C@@H](C)[C@@H](O)C[C@@H](O)[C@H](C)[C@@H]([C@@H](C)[C@@H](O)[C@@H](C)CC[C@H]4C[C@H](OC)C[C@H](C)O4)OC(=O)/C=C/C(C)=C/C[C@H](O)C[C@@H]4C=CC[C@@H](C[C@H](OC)[C@@H](C)[C@@H](O)C[C@@H](O)[C@@H]2C)O4)O3)O[C@@H](C)C1`, the outcome in the assay with A10 [1] was Active.

Broadly, the IC50 is the concentration at which inhibition is half-maximal. High values mean weaker potency, low ones greater potency. What is called MIC is the smallest concentration in the dilution series that meets the test's criterion for growth inhibition. A low value points to a more susceptible organism. For the compound `CO[C@@H]1C[C@H](C)O[C@@H](C(O)C[C@H](C)[C@H](O)[C@H](C)[C@H]2OC(=O)/C=C/C(C)=C/C[C@H](O)C[C@@H]3C=CC[C@@H](C[C@H](OC)[C@@H](C)[C@@H](O)C[C@@H](O)[C@H](C)[C@@H]([C@@H](C)[C@@H](O)[C@@H](C)CC[C@H]4C[C@H](OC)C[C@H](C)O4)OC(=O)/C=C/C(C)=C/C[C@H](O)C[C@@H]4C=CC[C@@H](C[C@H](OC)[C@@H](C)[C@@H](O)C[C@@H](O)[C@@H]2C)O4)O3)C1` (some centres undefined) [Swinholide I], the IC50 with HCT-116 is 5.6 nM and 0.008 µg/mL. Moreover, the figures for the MIC with Candida albicans [2] and with Candida albicans [3] were 62.2 µg/mL (≈ 44.2 µM) and 500 µg/mL (≈ 356 µM), respectively. Further, the result with A10 [4] was Active.

Consider `CO[C@H]1C[C@H](CC[C@H](C)[C@H](O)[C@H](C)[C@H]2OC(=O)/C=C/C(C)=C/C[C@H](O)C[C@@H]3C=CC[C@@H](C[C@H](OC)[C@@H](C)[C@@H](O)C[C@@H](O)[C@H](C)[C@@H]([C@@H](C)[C@@H](O)[C@@H](C)CC[C@H]4C[C@H](OC)C[C@H](C)O4)OC(=O)/C(C)=C/C[C@H](O)C[C@@H]4C=CC[C@@H](C[C@H](OC)[C@@H](C)[C@@H](O)C[C@@H](O)[C@@H]2C)O4)O3)O[C@@H](C)C1` [HURGHADOLIDE A], for which the IC50 in the assay with HCT-116 is 365 nM and 0.5 µg/mL. For the same compound, the MIC against Candida albicans [2] and with Candida albicans [3] was 31.3 µg/mL (≈ 22.9 µM) each time.

The compound `C[C@@H]1[C@H](O)[C@@H](C)/C=C/C=C/C=C/C=C/C=C/C=C/C=C/[C@H](O[C@@H]2O[C@H](C)[C@@H](O)[C@H](N)[C@@H]2O)C[C@@H]2O[C@](O)(C[C@@H](O)C[C@@H](O)[C@H](O)CC[C@@H](O)C[C@@H](O)CC(=O)O[C@H]1C)C[C@H](O)[C@H]2C(=O)O` [AMPHOTERICIN B] showed an MIC with Candida albicans [2] of 1.56 µg/mL (≈ 1.69 µM).
